# Results reported in patent US20250144067A1, “PERSONALIZED STARVATION THERAPY FOR CANCER” (Faeth Therapeutics, Inc., priority 2021, published 2025).
# Where a name gives a salt, the structure may show the parent alone. Read-outs that look alike come from different tables or passages of the source.
# Key:
# [1] = test system: NCI-H292 lung cancer cells; assay: FDA drug screening, complete media vs cholesterol-free media without statin (TABLE 1); format: cell-based, human
# [2] = test system: NCI-H292 lung cancer cells; assay: FDA drug screening, complete media vs cholesterol-free media with simvastatin (TABLE 2); format: cell-based, human
# [3] = Complete minus Cholesterol-free, greater than 0 enhanced anti-cancer activity, about 0 neutral, below 0 antagonists
# [4] = NCI-H292 cells in cholesterol-free media without statin
# [5] = NCI-H292 cells in complete media
# [6] = NCI-H292 cells, FDA drug library screen, cholesterol-free media with simvastatin 0.04 μM
# [7] = NCI-H292 cells, FDA drug library screen, complete media
# [8] = complete media minus cholesterol-free media + simvastatin, >0 enhanced anti-cancer activity, about 0 neutral, <0 antagonist
# [9] = NCI-H292 cells, cholesterol-free media without statin
# [10] = complete vs cholesterol-free media, greater than 0 enhanced anti-cancer activity, about 0 neutral, below 0 antagonists
# [11] = NCI-H292 cells, cholesterol-free media with simvastatin 0.04 μM, cell growth value in FDA drug screen
# [12] = NCI-H292 cells, complete media, cell growth value in FDA drug screen
# [13] = Complete minus Cholesterol-free, >0 enhanced anti-cancer activity, about 0 neutral, <0 antagonist
# [14] = NCI-H292 cells, cholesterol-free media with simvastatin 0.04 μM, FDA drug library screen (TABLE 2)
# [15] = NCI-H292 cells, complete media, FDA drug library screen (TABLE 2)
# [16] = complete media minus cholesterol-free media + simvastatin (0.04 μM), >0 enhanced anti-cancer activity, about 0 neutral, <0 antagonist
# [17] = Complete minus Cholesterol-free, greater than 0 enhanced anti-cancer activity, about 0 neutral, below 0 antagonist
# [18] = NCI-H292 cells, FDA drug library screen, cholesterol-free media without statin
# [19] = NCI-H292 cells, cholesterol-free media without statin, FDA drug library screen
# [20] = NCI-H292 cells, complete media, FDA drug library screen
# [21] = complete media vs cholesterol-free media + simvastatin (0.04 μM), >0 enhanced anti-cancer activity, about 0 neutral, <0 antagonist
# [22] = NCI-H292 cells, FDA library drug in cholesterol-free media with simvastatin 0.04 μM
# [23] = NCI-H292 cells, FDA library drug in complete media
# [24] = complete vs cholesterol-free media, >0 enhanced anti-cancer activity, about 0 neutral, <0 antagonist
# [25] = NCI-H292 cells, drug in cholesterol-free media with simvastatin 0.04 μM
# [26] = NCI-H292 cells, drug in complete media
compound,measurement,setting,value
CN(CCOc1ccc(NS(C)(=O)=O)cc1)CCc1ccc(NS(C)(=O)=O)cc1 [Dofetilide],Difference,[1]; [3],−0.48
same,Cholesterol-free,[1]; [4],1.275
same,Complete,[1]; [5],0.7972
same,Cholesterol-free media + simvastatin (0.04 μM),[2]; [6],0.6812
same,Complete Media,[2]; [7],0.8394
same,Difference,[2]; [8],0.16
O=C(O[C@@H]1C[C@@H]2C[C@H]3C[C@H](C1)N2CC3=O)c1c[nH]c2ccccc12 [Dolasetron (Mesylate hydrate)],Cholesterol-free,[1]; [9],1.287
same,Complete,"[1]; NCI-H292 cells, complete media",0.8444
same,Difference,[1]; [10],−0.44
same,Cholesterol-free media + simvastatin (0.04 μM),[2]; [6],1.31
same,Complete Media,[2]; [7],1.817
same,Difference,[2]; [8],0.51
O=C(O[C@@H]1C[C@@H]2C[C@H]3C[C@H](C1)N2CC3=O)c1c[nH]c2ccccc12 [Dolasetron],Cholesterol-free,[1]; [9],1.4
same,Complete,"[1]; NCI-H292 cells, complete media",0.9782
same,Difference,[1]; [10],−0.42
same,Cholesterol-free media + simvastatin (0.04 μM),[2]; [11],0.9714
same,Complete Media,[2]; [12],1.02
same,Difference,[2]; [8],0.05
C[C@@H]1CCO[C@H]2Cn3cc(C(=O)NCc4ccc(F)cc4F)c(=O)c(O)c3C(=O)N12 [Dolutegravir (sodium)],Difference,[1]; [13],−0.20
same,Cholesterol-free,[1]; [9],0.8373
same,Complete,"[1]; NCI-H292 cells, complete media",0.6354
same,Cholesterol-free media + simvastatin (0.04 μM),[2]; [11],0.4489
same,Complete Media,[2]; [12],0.5012
same,Difference,[2]; [8],0.05
C[C@@H]1CCO[C@H]2Cn3cc(C(=O)NCc4ccc(F)cc4F)c(=O)c(O)c3C(=O)N12 [Dolutegravir],Difference,[1]; [13],−0.20
same,Cholesterol-free,[1]; [9],0.9033
same,Complete,"[1]; NCI-H292 cells, complete media",0.7062
same,Cholesterol-free media + simvastatin (0.04 μM),[2]; [14],0.5964
same,Complete Media,[2]; [15],0.5738
same,Difference,[2]; [16],−0.02
CCCCCCCCCCCC[N+](C)(C)CCOc1ccccc1.[Br-] [Domiphen (bromide)],Cholesterol-free,[1],−0.0357
same,Complete,[1],0.01628
same,Difference,[1],0.05
same,Cholesterol-free media + simvastatin (0.04 μM),[2],0.01614
same,Complete Media,[2],−0.0427
same,Difference,[2],−0.06
O=c1[nH]c2ccccc2n1CCCN1CCC(n2c(=O)[nH]c3cc(Cl)ccc32)CC1 [Domperidone],Difference,[1]; [17],−0.14
same,Cholesterol-free,[1]; [18],1.085
same,Complete,[1]; [7],0.9412
same,Cholesterol-free media + simvastatin (0.04 μM),[2]; [11],0.9833
same,Complete Media,[2]; [12],1.061
same,Difference,[2]; [8],0.08
COc1cc2c(cc1OC)C(=O)C(CC1CCN(Cc3ccccc3)CC1)C2 (stereo not shown) [Donepezil (Hydrochloride)],Difference,[1]; [13],−0.23
same,Cholesterol-free,[1]; [9],0.9321
same,Complete,"[1]; NCI-H292 cells, complete media",0.7035
same,Cholesterol-free media + simvastatin (0.04 μM),[2]; [6],0.6694
same,Complete Media,[2]; [7],0.8164
same,Difference,[2]; [8],0.15
COc1cc2c(cc1OC)C(=O)C(CC1CCN(Cc3ccccc3)CC1)C2 (stereo not shown) [Donepezil],Difference,[1]; [13],0.03
same,Cholesterol-free,[1]; [19],0.9537
same,Complete,[1]; [20],0.9881
same,Cholesterol-free media + simvastatin (0.04 μM),[2]; [6],1.009
same,Complete Media,[2]; [7],1.62
same,Difference,[2]; [8],0.61
Cn1c(Cn2ccc(C(F)(F)F)c(Oc3cc(Cl)cc(C#N)c3)c2=O)n[nH]c1=O [Doravirine],Difference,[1]; [13],0.06
same,Cholesterol-free,[1]; [19],0.8163
same,Complete,[1]; [20],0.8734
same,Cholesterol-free media + simvastatin (0.04 μM),[2]; [6],1.425
same,Complete Media,[2]; [7],1.562
same,Difference,[2]; [8],0.14
C[C@@H](O)[C@H]1C(=O)N2C(C(=O)O)=C(S[C@@H]3CN[C@H](CNS(N)(=O)=O)C3)[C@H](C)[C@H]12 [Doripenem (monohydrate)],Difference,[1]; [13],−0.25
same,Cholesterol-free,[1]; [9],1.011
same,Complete,"[1]; NCI-H292 cells, complete media",0.7618
same,Cholesterol-free media + simvastatin (0.04 μM),[2]; [6],0.9911
same,Complete Media,[2]; [7],0.8363
same,Difference,[2]; [21],−0.15
CCN[C@H]1C[C@H](C)S(=O)(=O)c2sc(S(N)(=O)=O)cc21 [Dorzolamide (hydrochloride)],Difference,[1]; [17],−0.11
same,Cholesterol-free,[1]; [18],1.045
same,Complete,[1]; [7],0.9378
same,Cholesterol-free media + simvastatin (0.04 μM),[2]; [22],0.9476
same,Complete Media,[2]; [23],0.6459
same,Difference,[2]; [21],−0.30
CCN1CC(CCN2CCOCC2)C(c2ccccc2)(c2ccccc2)C1=O (stereo not shown) [Doxapram (hydrochloride hydrate)],Difference,[1]; [3],−1.01
same,Cholesterol-free,[1]; [4],2.003
same,Complete,[1]; [5],0.9924
same,Cholesterol-free media + simvastatin (0.04 μM),[2]; [6],0.894
same,Complete Media,[2]; [7],1.128
same,Difference,[2]; [8],0.23
CN(C)CCC=C1c2ccccc2COc2ccccc21 [Doxepin (Hydrochloride)],Difference,[1]; [17],−0.11
same,Cholesterol-free,[1]; [18],1.23
same,Complete,[1]; [7],1.122
same,Cholesterol-free media + simvastatin (0.04 μM),[2]; [6],0.8618
same,Complete Media,[2]; [7],1.158
same,Difference,[2]; [8],0.30
C[C@H]1O[C@@H](n2cc(F)c(=O)[nH]c2=O)[C@H](O)[C@@H]1O [Doxifluridine],Difference,[1]; [3],−0.49
same,Cholesterol-free,[1]; [4],1.329
same,Complete,[1]; [5],0.8392
same,Cholesterol-free media + simvastatin (0.04 μM),[2]; [14],1.085
same,Complete Media,[2]; [15],1.031
same,Difference,[2]; [16],−0.05
Cn1c(=O)c2c(ncn2CC2OCCO2)n(C)c1=O [Doxofylline],Cholesterol-free,[1]; [9],1.338
same,Complete,"[1]; NCI-H292 cells, complete media",0.9897
same,Difference,[1]; [10],−0.35
same,Cholesterol-free media + simvastatin (0.04 μM),[2]; [22],1.302
same,Complete Media,[2]; [23],1.024
same,Difference,[2]; [21],−0.28
COc1cccc2c1C(=O)c1c(O)c3c(c(O)c1C2=O)C[C@@](O)(C(=O)CO)C[C@@H]3O[C@H]1C[C@H](N)[C@H](O)[C@H](C)O1 [Doxorubicin (hydrochloride)],Cholesterol-free,[1]; [19],−0.08252
same,Complete,[1]; [20],−0.006007
same,Difference,[1]; [24],0.08
same,Cholesterol-free media + simvastatin (0.04 μM),[2]; [14],0.09054
same,Complete Media,[2]; [15],0.01994
same,Difference,[2]; [16],−0.07
CCO.C[C@H]1c2cccc(O)c2C(O)=C2C(=O)[C@]3(O)C(O)=C(C(N)=O)C(=O)[C@@H](N(C)C)[C@@H]3[C@@H](O)[C@@H]21.C[C@H]1c2cccc(O)c2C(O)=C2C(=O)[C@]3(O)C(O)=C(C(N)=O)C(=O)[C@@H](N(C)C)[C@@H]3[C@@H](O)[C@@H]21.Cl.Cl.O [Doxycycline (hyclate)],Difference,[1]; [17],−0.15
same,Cholesterol-free,[1]; [18],1.09
same,Complete,[1]; [7],0.9355
same,Cholesterol-free media + simvastatin (0.04 μM),[2]; [25],1.074
same,Complete Media,[2]; [26],0.8852
same,Difference,[2]; [21],−0.19
CCN(CC)CCOC(=O)C(c1ccccc1)C1CCCCC1 (stereo not shown) [Drofenine (hydrochloride)],Difference,[1]; [3],−0.55
same,Cholesterol-free,[1]; [4],1.437
same,Complete,[1]; [5],0.8908
same,Cholesterol-free media + simvastatin (0.04 μM),[2]; [11],1.111
same,Complete Media,[2]; [12],1.144
same,Difference,[2]; [8],0.03
CCCCc1oc2ccc(NS(C)(=O)=O)cc2c1C(=O)c1ccc(OCCCN(CCCC)CCCC)cc1 [Dronedarone (Hydrochloride)],Cholesterol-free,[1]; [19],0.4604
same,Difference,[1]; [24],0.28
same,Complete Media,[2]; [12],0.8231
same,Difference,[2]; [8],0.06
CCCCc1oc2ccc(NS(C)(=O)=O)cc2c1C(=O)c1ccc(OCCCN(CCCC)CCCC)cc1 [Dronedarone],Difference,[1]; [17],−0.14
same,Cholesterol-free,[1]; [18],1.006
same,Complete,[1]; [7],0.8674
same,Cholesterol-free media + simvastatin (0.04 μM),[2]; [6],0.4908
same,Complete Media,[2]; [7],0.8741
same,Difference,[2]; [8],0.38
O=C(CCCN1CC=C(n2c(=O)[nH]c3ccccc32)CC1)c1ccc(F)cc1 [Droperidol],Difference,[1]; [13],−0.22
same,Cholesterol-free,[1]; [9],1.218
same,Complete,"[1]; NCI-H292 cells, complete media",1.002
same,Cholesterol-free media + simvastatin (0.04 μM),[2]; [22],1.065
same,Complete Media,[2]; [23],0.7994
same,Difference,[2]; [21],−0.27
OCC(O)CN1CCN(c2ccccc2)CC1 (stereo not shown) [Dropropizine],Difference,[1]; [3],−0.56
same,Cholesterol-free,[1]; [4],1.559
same,Complete,[1]; [5],1
same,Cholesterol-free media + simvastatin (0.04 μM),[2]; [25],1.188
same,Complete Media,[2]; [26],0.9581
same,Difference,[2]; [21],−0.23
C[C@]12CCC(=O)C=C1[C@@H]1C[C@@H]1[C@H]1[C@@H]3[C@@H]4C[C@@H]4[C@@]4(CCC(=O)O4)[C@@]3(C)CC[C@@H]12 [Drospirenone],Cholesterol-free,[1]; [9],1.382
same,Complete,"[1]; NCI-H292 cells, complete media",1.062
same,Difference,[1]; [10],−0.32
same,Cholesterol-free media + simvastatin (0.04 μM),[2]; [25],1.4
same,Complete Media,[2]; [26],1.139
same,Difference,[2]; [21],−0.26
N[C@H](C(=O)O)[C@H](O)c1ccc(O)c(O)c1 [Droxidopa],Cholesterol-free,[1]; [19],0.9972
same,Complete,[1]; [20],1.24
same,Difference,[1]; [24],0.24
same,Cholesterol-free media + simvastatin (0.04 μM),[2]; [25],1.236
same,Complete Media,[2]; [26],1.023
same,Difference,[2]; [21],−0.21
CNCC[C@H](Oc1cccc2ccccc12)c1cccs1 [Duloxetine (hydrochloride)],Cholesterol-free,[1],1.331
same,Complete,[1],1.434
same,Difference,[1],0.10
same,Cholesterol-free media + simvastatin (0.04 μM),[2],1.089
same,Complete Media,[2],1.143
same,Difference,[2],0.05
C[C@]12C=CC(=O)N[C@@H]1CC[C@@H]1[C@@H]2CC[C@]2(C)[C@@H](C(=O)Nc3cc(C(F)(F)F)ccc3C(F)(F)F)CC[C@@H]12 [Dutasteride],Cholesterol-free,[1],0.7204
same,Complete,[1],0.8443
same,Difference,[1],0.12
same,Cholesterol-free media + simvastatin (0.04 μM),[2],1.633
same,Complete Media,[2],1.205
same,Difference,[2],−0.43
